Read-outs that look alike come from different tables or passages of the source.

The record followed here is patent publication US7022736B2, “Enzyme inhibitors” (Istituto Di Ricerche Di Biologia Molecolare P Angeletti SpA, priority 1998, dated 2006).

This assay addresses T1, HCV RdRp (NS5B RNA-dependent RNA polymerase) (Hepatitis C virus genotype 1b, UniProt P26663).
T1 construct: The HCV NS5B protein is the viral RdRp; made in house; host or cells: insect cells infected with recombinant baculovirus
Put plainly: Inhibition of hepatitis C virus RdRp (poly(A)/oligo(U), [3H]UTP incorporation). Format: biochemical. How it is done: In initial tests, the compounds were tested to see if they were effective as inhibitors of the RNA-dependent RNA polymerase (RdRp) of hepatitis C virus (HCV). The HCV NS5B protein is the viral RdRp; compounds capable of interfering with the activity of this enzyme are thus expected to block viral replication.
Test for Inhibition of Hepatatis C Virus RdRp
WO96/37619 describes the production of recombinant HCV RdRp from insect cells infected with recombinant baculovirus encoding the enzyme. […] The reference describes a polymerisation assay using poly (A) as a template and oligo (U) as a primer. Incorporation of tritiated UTP is quantified by measuring acid-insoluble radioactivity. The present inventors have employed this assay to screen the various compounds described above as inhibitors of HCV RdRp and other virally encoded polymerases.
Incorporation of radioactive UMP was measured as follows. The standard reaction (100 μl) was carried out in a buffer containing 20 mM tris/HCl pH 7.5, 5 mM MgCl2, 1 mM DTT, 50 mM NaCl, 1 mM EDTA, 2 OU Rnasin (Promega), 0.05% Triton X-100, 1 μCi[^3H] UTP (40 Ci/mmol,NEN), 10 μM UTP and 10 μg/ml poly (A). Oligo (U)12 (1 μg/ml, Genset) was added as a primer. The final NSSB enzyme concentration was 20 nM. After 1 hour incubation at 22° C. the reaction was stopped by adding 100 μl of 20% TCA and applying samples to DE81 filters. The filters were washed thoroughly with 5% TCA containing 1M Na2HPO4/NaH2PO4, pH 7.0, rinsed with water and then ethanol, air dried, and the filter-bound radioactivity was measured in the scintillation counter. By carrying out the reaction in the presence of various concentrations of each of the compounds set out above it was possible to determine IC50 values for each compound with the formula: % residual activity=100/(1+[I]/IC50)^s where [I] is the inhibitor concentration and “s” is the slope of the inhibition curve. Test for Inhibition of Hepatitis B Virus Polymerase

Where [1] appears, read: Tables I-VIII, 20 nM NS5B, 1 hour at 22° C., read-out: IC 50 (μM), HCV-polymerase.
Setting [2] is: Tables IXa-IXc, unit inferred, read-out: HCV (IC50).

T1 sequence (P26663 2420-3010): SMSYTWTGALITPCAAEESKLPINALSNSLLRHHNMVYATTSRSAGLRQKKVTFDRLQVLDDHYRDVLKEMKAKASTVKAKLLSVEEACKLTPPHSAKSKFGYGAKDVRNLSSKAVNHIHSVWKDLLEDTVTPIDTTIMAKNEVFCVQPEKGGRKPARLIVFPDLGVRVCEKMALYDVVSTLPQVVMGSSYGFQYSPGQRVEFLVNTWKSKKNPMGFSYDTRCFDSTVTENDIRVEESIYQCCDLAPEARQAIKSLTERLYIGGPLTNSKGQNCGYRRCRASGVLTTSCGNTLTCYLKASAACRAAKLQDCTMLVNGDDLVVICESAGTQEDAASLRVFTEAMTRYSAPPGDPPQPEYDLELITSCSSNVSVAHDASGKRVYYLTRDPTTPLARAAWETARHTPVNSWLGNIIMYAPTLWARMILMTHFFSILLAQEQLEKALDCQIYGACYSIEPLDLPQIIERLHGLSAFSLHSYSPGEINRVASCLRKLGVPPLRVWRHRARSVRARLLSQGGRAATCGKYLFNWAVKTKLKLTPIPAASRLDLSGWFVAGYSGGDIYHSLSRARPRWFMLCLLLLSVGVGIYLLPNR

As for `O=C(O)C(O)=CC(=O)c1cccc(OCc2cccc3ccccc23)c1` [Example 132], the IC50 under setting [1] was determined as 0.67 µM.

`C=CCN(CC=C)c1ccc(C(=O)C=C(O)C(=O)O)s1` [Example 203]: the IC50 under setting [1] stood at 19.8 µM.

`CC(C)COc1ccccc1C(=O)C=C(O)C(=O)O` [Example 32]: the IC50 under setting [1] stood at 6.1 µM.

For the compound `Cc1c(Cl)cccc1S(=O)(=O)Nc1cccc(C(=O)C=C(O)C(=O)O)c1` [Example 123], the IC50 under setting [1] was 0.29 µM.

Take `O=C(O)C(O)=CC(=O)c1cc2c(s1)-c1ccccc1CC2` [Example 204]: the IC50 under setting [1] came out at 11 µM.

Take `N#Cc1ccc(-c2ccccc2)cc1COc1cccc(C(=O)C=C(O)C(=O)O)c1` [Example 116]: the IC50 by setting is: under setting [1], 0.3 µM; under setting [2], 0.3 µM.

`O=C(O)C(=O)CC(=O)c1ccco1` [Example 216] came in with an IC50 of 50 µM.

On to `N#CCCCOc1ccc(N)cc1C(=O)C=C(O)C(=O)O` [Example 63], for which the IC50 under setting [1] worked out at 1.7 µM.

Regarding `CC(C)(C)OC(=O)c1sccc1COc1cccc(C(=O)C=C(O)C(=O)O)c1` [Example 82], the IC50 under setting [1] was determined as 19 µM.

On to `O=C(O)C(O)=CC(=O)c1cccc(OCc2cccc(C(F)(F)F)c2)c1` [Example 93], for which the IC50 under setting [1] was 1.9 µM.

As to `C=CCOc1cccc(C(=O)C=C(O)C(=O)O)c1` [Example 5], under setting [1], the IC50 is 17 µM.

In the case of `Cc1csc2sc(C(=O)C=C(O)C(=O)O)c(C)c12` [Example 201], under setting [1], the IC50 was found to be 20 µM.

Consider `N#CCCCn1cccc1C(=O)C=C(O)C(=O)O` [Example 173], for which the IC50 under setting [1] is 21 µM.

For `N#CCCCOc1ccc(OCCCC#N)c(C(=O)C=C(O)C(=O)O)c1` [Example 35], the IC50 under setting [1] turned out to be 6.1 µM.

Regarding `O=C(O)C(O)=CC(=O)c1ccccc1SC1CCCCC1` [Example 33], the IC50 under setting [1] turned out to be 18.2 µM.

Turning to `O=C(O)C(O)=CC(=O)c1ccccc1Oc1ccc(Cl)cc1` [Example 38], the IC50 under setting [1] is 16 µM.

Take `CCCCCOc1ccccc1C(=O)C=C(O)C(=O)O` [Example 59]: under setting [1], the IC50 is 25.3 µM.

For the compound `O=C(O)C(O)=CC(=O)c1ccsc1Cc1cccc(F)c1` [Example 229], the IC50 under setting [1] worked out at 80 µM.

Turning to `O=C(O)C(O)=CC(=O)c1cccc(OCc2cccc(F)c2)c1` [Example 94], under setting [1], the IC50 was determined as 5.8 µM.

On to `N#Cc1ccccc1COc1cc(O)cc(C(=O)C=C(O)C(=O)O)c1` [Example 158], for which the IC50 reads like this: under setting [1], 0.2 µM; under setting [2], 0.2 µM.

In the case of `O=C(O)C(O)=CC(=O)c1cccc(NS(=O)(=O)c2ccc(Cl)c(Cl)c2)c1` [Example 136], the IC50 under setting [1] came to 0.2 µM.

With `N#Cc1ccccc1S(=O)(=O)Nc1cccc(C(=O)C=C(O)C(=O)O)c1` [Example 72], the IC50 reads like this: under setting [1], 0.48 µM; under setting [2], 0.48 µM.

In the case of `CCc1ccc(C(=O)C=C(O)C(=O)O)cc1` [Example 164], the IC50 under setting [1] came out at 47 µM.

In the case of `O=C(O)C(O)=CC(=O)c1cccn1Cc1ccc(O)cc1` [Example 179], the IC50 reads like this: under setting [1], 12.8 µM; under setting [2], 12.8 µM.

For the compound `CC1(C(=O)C=C(O)C(=O)O)CC1` [Example 239], the IC50 under setting [1] was found to be 9.4 µM.

Turning to `O=C(O)C(O)=CC(=O)c1cccn1CC1CCCCC1` [Example 178], the IC50 under setting [1] stood at 17.9 µM.

Regarding `O=C(O)C(O)=CC(=O)c1cccc(OCc2ccc(Cl)c(Cl)c2)c1` [Example 133], the IC50 under setting [1] is 3.2 µM.

On to `O=C(O)C(O)=CC(=O)c1cccc(OCCCCn2c(C(F)(F)F)nc3ccccc32)c1` [Example 22], for which the IC50 under setting [1] was 19 µM.

For the compound `Cc1ccc(C(=O)C=C(O)C(=O)O)c(OCCCC#N)c1` [Example 167], the IC50 under setting [1] stood at 0.6 µM.

Consider `CC(C)(C)OC(=O)Nc1cccc(C(=O)C=C(O)C(=O)O)c1` [Example 61], for which, under setting [1], the IC50 is 31 µM.

Consider `N#Cc1ccc(S(=O)(=O)Nc2cccc(C(=O)C=C(O)C(=O)O)c2)cc1` [Example 74], for which the IC50 under setting [1] was 3.6 µM.

For `Cc1c[nH]c(C)c1C(=O)C=C(O)C(=O)O` [Example 219], under setting [1], the IC50 is 23.7 µM.

As for `O=C(O)C(O)=CC(=O)c1cccc(S(=O)(=O)Nc2ccccc2)c1` [Example 144], under setting [1], the IC50 was 14 µM.

Regarding `Cc1ccc(C(=O)C=C(O)C(=O)O)c(C)c1` [Example 165], the IC50 stood at 2 µM under setting [1] and 2 µM under setting [2].

Take `O=C(O)C(O)=CC(=O)c1cccc(OCc2c(Cl)cccc2Cl)c1` [Example 139]: under setting [1], the IC50 came out at 1.4 µM.

`O=C(O)C(O)=CC(=O)c1ccc(O)cc1` [Example 162]: the IC50 reads like this: under setting [1], 5.5 µM; under setting [2], 5.5 µM.

For `O=C(O)C(O)=CC(=O)c1ccsc1Cc1ccc(Cl)cc1` [Example 231], the IC50 under setting [1] is 9.4 µM.

Take `N#CCCCCn1cccc1C(=O)C=C(O)C(=O)O` [Example 174]: the IC50 under setting [1] was determined as 13.4 µM.

In the case of `O=C(O)C(O)=CC(=O)c1cccn1CC1CCCC1` [Example 175], the IC50 under setting [1] was 25 µM.

On to `Cc1ccccc1C(=O)C=C(O)C(=O)O` [Example 2], for which the IC50 under setting [1] stood at 3 µM.

Consider `O=C(O)C(O)=CC(=O)c1cccc(NS(=O)(=O)c2cc(Cl)ccc2Cl)c1` [Example 88], for which the IC50 under setting [1] is 0.7 µM and the IC50 under setting [2] was 0.7 µM.

Consider `O=C(O)C(O)=CC(=O)c1cccc(N2CCCC2)c1` [Example 15], for which, under setting [1], the IC50 was 83.5 µM.

Take `O=C(O)C(O)=CC(=O)c1cccc(NS(=O)(=O)c2cc(Cl)sc2Cl)c1` [Example 95]: the IC50 under setting [1] came to 0.48 µM.

In the case of `O=C(O)C(O)=CC(=O)c1ccc(Cc2cccc(Cl)c2)s1` [Example 211], the IC50 under setting [1] is 82 µM.

As for `O=C(O)C(O)=CC(=O)c1cccn1Cc1ccccc1` [Example 176], under setting [1], the IC50 is 29 µM.

For the compound `O=C(O)C(O)=CC(=O)c1cccc(NS(=O)(=O)c2ccc(Cl)cc2Cl)c1` [Example 151], the IC50 under setting [1] stood at 0.5 µM.

Consider `N#Cc1ccccc1COc1cccc(C(=O)C=C(O)C(=O)O)c1` [Example 64], for which the IC50 runs as follows: under setting [1], 0.23 µM; under setting [2], 0.23 µM.

As to `O=C(O)C(O)=CC(=O)c1ccsc1Sc1ccc(F)cc1` [Example 234], the IC50 under setting [1] was found to be 14.5 µM.

In the case of `O=C(O)C(O)=CC(=O)c1cccc(NS(=O)(=O)CCCCl)c1` [Example 134], the IC50 under setting [1] stood at 23 µM.

On to `O=C(O)C(O)=CC(=O)c1cc(I)cn1Cc1ccc(F)cc1` [Example 190], for which the IC50 was 18 µM under setting [1] and 18 µM under setting [2].

With `N#Cc1ccc(Cn2cccc2C(=O)C=C(O)C(=O)O)cc1` [Example 183], under setting [1], the IC50 amounted to 32 µM.

On to `O=C(O)C(O)=CC(=O)c1cccc(OCc2cccc[n+]2[O-])c1` [Example 105], for which, under setting [1], the IC50 was determined as 13.7 µM.

Regarding `O=C(O)C(O)=CC(=O)c1sccc1Cc1cccc(F)c1` [Example 207], under setting [1], the IC50 was found to be 9.9 µM.

Turning to `Cc1cc(S(=O)(=O)Nc2cccc(C(=O)C=C(O)C(=O)O)c2)c(Cl)cc1Cl` [Example 149], the IC50 under setting [1] amounted to 0.55 µM.

As for `O=C(O)C(O)=CC(=O)c1cccc(Cn2nnc3ccccc32)c1` [Example 154], the IC50 under setting [1] is 30 µM.

As for `O=C(O)C(O)=CC(=O)c1sccc1Sc1cccc(F)c1` [Example 213], the IC50 under setting [1] amounted to 5.9 µM.

As for `CCCCCCOc1cccc(C(=O)C=C(O)C(=O)O)c1` [Example 30], the IC50 under setting [1] worked out at 15 µM.

`O=C(O)C(O)=CC(=O)c1cccc(NC(=O)c2ccccc2Cl)c1` [Example 85]: under setting [1], the IC50 was found to be 13 µM.

Turning to `O=C(O)C(O)=CC(=O)c1cccc(NS(=O)(=O)Cc2ccccc2)c1` [Example 108], under setting [1], the IC50 was 6.9 µM.

`O=C(O)C(O)=CC(=O)c1cccc(OCc2cccc(Oc3ccccc3)c2)c1` [Example 104]: the IC50 under setting [1] came out at 50 µM.

As to `O=C(O)C(O)=CC(=O)C1(c2ccccc2)CCN(S(=O)(=O)c2ccc(Cl)c(Cl)c2)CC1` [Example 250], under setting [1], the IC50 amounted to 17 µM.

On to `CCCCS(=O)(=O)N1CCCC(Cc2ccc(Cl)cc2)(C(=O)C=C(O)C(=O)O)C1` (centres unmarked) [Example 245], for which the IC50 under setting [1] was found to be 81.4 µM.

In the case of `O=C(Nc1cccc(C(=O)C=C(O)C(=O)O)c1)OCc1ccccc1` [Example 81], the IC50 under setting [1] worked out at 1.4 µM.

Consider `O=C(O)C(O)=CC(=O)c1cccc(NS(=O)(=O)c2ccc(C(F)(F)F)cc2Cl)c1` [Example 115], for which the IC50 under setting [1] was 3.7 µM.

For `O=C(O)C(O)=CC(=O)c1cccc(OCC2CCCCC2)c1` [Example 10], under setting [1], the IC50 is 20 µM.

`O=C(O)C(O)=CC(=O)C(c1ccccc1)c1ccccc1` [Example 244]: the IC50 under setting [1] was determined as 77 µM.

Turning to `O=C(O)C(O)=CC(=O)c1cccc(OCc2ccccc2C(=O)O)c1` [Example 90], the IC50 is, setting by setting: under setting [1], 1.8 µM; under setting [2], 1.8 µM.

Regarding `N#Cc1cccc(COc2cccc(C(=O)C=C(O)C(=O)O)c2)c1` [Example 28], the IC50 under setting [1] came out at 6.2 µM.

For the compound `N#Cc1cccc(COc2ccccc2C(=O)C=C(O)C(=O)O)c1` [Example 26], under setting [1], the IC50 was found to be 26 µM.

With `Cc1ccc(-c2sccc2C(=O)C=C(O)C(=O)O)cc1` [Example 226], the IC50 under setting [1] worked out at 17 µM.
